Molecular target: T1, sigma-1 receptor (Cavia porcellus, UniProt Q60492)
T1 construct: guinea pig brains were homogenized; from tissue; host or cells: guinea pig brain membranes
Experiment: Sigma-1 receptor binding ([3H]-(+)-pentazocine, brain membranes)
Details: [3H]-(+)-pentazocine 0.5 nM, guinea pig brain membranes
Procedure: Brain membrane preparation and binding assays for the sigma-1 receptor were performed as described (DeHaven-Hudkins et al., Characterization of the binding of [^3H]-(+)-pentazocine to recognition sites in guinea pig brain, Eur. J. Pharmacol. 227, 371-378) with some modifications.
In brief, guinea pig brains were homogenized in 10 vols. (w/v) of Tris-HCl 50 mM, 0.32 M sucrose, pH 7.4, with a Kinematica Polytron PT 3000 at 15000 r.p.m. for 30 s. The homogenate was centrifuged at 1000 g for 10 min at 4° C. and the supernatants collected and centrifuged again at 48000 g for 15 min at 4° C. The pellet was resuspended in 10 volumes of Tris-HCl buffer (50 mM, pH 7.4), incubated at 37° C. for 30 min, and centrifuged at 48000 g for 20 min at 4° C. Following this, the pellet was resuspended in fresh Tris-HCl buffer (50 mM, pH 7.4) and stored on ice until use.
Each assay tube contained 10 μL of [^3H]-(+)-pentazocine (final concentration of 0.5 nM), 900 μL of the tissue suspension to a final assay volume of 1 mL and a final tissue concentration of approximately 30 mg tissue net weight/mL. Non-specific binding was defined by addition of a final concentration of […] haloperidol. All tubes were incubated at 37° C. for 150 min before termination of the reaction by rapid filtration over Schleicher & Schuell GF 3362 glass fibre filters [previously soaked in a solution of 0.5% polyethylenimine for at least 1 h]. Filters were then washed with four times with 4 mL of cold Tris-HCl buffer (50 mM, pH 7.4). Following addition of scintillation cocktail, the samples were allowed to equilibrate overnight. The amount of bound radioactivity was determined by liquid scintillation spectrometry using a Wallac Winspectral 1414 liquid scintillation counter. Protein concentrations were determined by the method of Lowry et al. (Protein measurement with the Folin phenol reagent, J. Biol. Chem, 193, 265).
The binding of the compounds of the present invention to sigma-1 receptors was tested as described above.

T1 sequence (Q60492 whole entry): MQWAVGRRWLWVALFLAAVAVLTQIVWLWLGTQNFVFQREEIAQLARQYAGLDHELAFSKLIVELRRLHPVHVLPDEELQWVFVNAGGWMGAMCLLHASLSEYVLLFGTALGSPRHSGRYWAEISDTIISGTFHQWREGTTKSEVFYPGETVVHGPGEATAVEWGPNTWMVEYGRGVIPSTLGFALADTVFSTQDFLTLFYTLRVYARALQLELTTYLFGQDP

CC1(C)[C@@H](CCN2CCc3ccccc3C2)C[C@H]1CN1CCCCC1 [compound 54]
Ki: 11.7 nM
inhibition at 0.01 µM (compound concentration 0.0100 μM, read-out: Percent Inhibition Percent Concentration (μM) 0.0100 SIGMA-1 receptor): 42.2%
inhibition at 0.1 µM (compound concentration 0.1000 μM, read-out: Percent Inhibition Percent Concentration (μM) 0.1000 SIGMA-1 receptor): 87.1%
